Test results from patent US20230115274A1, “COMPOUNDS AND COMPOSITIONS FOR TREATING CONDITIONS ASSOCIATED WITH STING ACTIVITY” (IFM Due, Inc., priority 2019, published 2023).

molecular target: T1, hSTING (Homo sapiens, UniProt Q86WV6, G230A/H232R/R293Q/R71H); test: STING reporter assay (luciferase) in THP1-Dual KO-IFNAR2 cells stimulated with 2′3′cGAMP; assay type: cell-based; details: 2′3′cGAMP 15 μM, 24 h, class symbols
T1 construct: host or cells: THP1-Dual KO-IFNAR2 cells
Method: STING pathway activation by the compounds described herein was measured using THP1-Dual™ cells (KO-IFNAR2).
THP1-Dual™ KO-IFNAR2 Cells (obtained from invivogen) were maintained in RPMI, 10% FCS, 5 ml P/S, 2 mM L-glut, 10 mM Hepes, and 1 mM sodium pyruvate. Compounds were spotted in empty 384 well tissue culture plates (Greiner 781182) by Echo for a final concentration of 0.0017-100 μM. Cells were plated into the TC plates at […], 2×10E6 cells/mL. For activation with STING ligand, 2′3′cGAMP (MW 718.38, obtained from Invivogen), was prepared in Optimem media.
The following solutions were prepared for each 1×384 plate: • Solution A: 2 mL Optimem with one of the following stimuli: • […] • Solution B: 2 mL Optimem with 60 μL Lipofectamine 2000->Incubate 5 min at RT
2 mL of solution A and 2 ml Solution B was mixed and incubated for 20 min at room temperature (RT). 20 uL of transfection solution (A+B) was added on top of the plated cells, with a final 2′3′cGAMP concentration of 15 μM. The plates were then centrifuged immediately at 340 g for 1 minute, after which they were incubated at 37° C., 5% CO2, >98% humidity for 24 h. Luciferase reporter activity was then measured. EC50 values were calculated by using standard methods known in the art.
Luciferase reporter assay: 10 μL of supernatant from the assay was transferred to white 384-plate with flat bottom and squared wells. One pouch of QUANTI-Luc™ Plus was dissolved in 25 mL of water. 100 μL of QLC Stabilizer per 25 mL of QUANTI-Luc™ Plus solution was added. 50 μL of QUANTI-Luc™ Plus/QLC solution per well was then added. Luminescence was measured on a Platereader (e.g., Spectramax I3X (Molecular Devices GF3637001)).
Luciferase reporter activity was then measured. EC50 values were calculated by using standard methods known in the art.

T1 sequence (Q86WV6 whole entry R71H/G230A/H232R/R293Q): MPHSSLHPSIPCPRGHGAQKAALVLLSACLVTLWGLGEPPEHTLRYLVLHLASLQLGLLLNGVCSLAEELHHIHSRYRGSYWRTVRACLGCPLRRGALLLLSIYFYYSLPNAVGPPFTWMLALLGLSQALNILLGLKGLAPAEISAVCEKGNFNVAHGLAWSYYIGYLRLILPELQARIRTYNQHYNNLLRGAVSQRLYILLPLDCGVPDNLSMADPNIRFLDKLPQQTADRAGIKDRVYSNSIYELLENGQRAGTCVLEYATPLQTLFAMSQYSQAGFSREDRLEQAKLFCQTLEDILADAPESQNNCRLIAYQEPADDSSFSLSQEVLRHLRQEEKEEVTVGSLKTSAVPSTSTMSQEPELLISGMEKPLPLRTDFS

`CN(C(=O)OC(C)(C)C)C1CC(n2cc(NC(=O)Nc3ccc(C4CCC(F)(F)CC4)nc3)c3cc(F)cnc32)C1` (centres unmarked) [Compound 101, tert-butyl (3-(3-(3-(6-(4,4-difluorocyclohexyl)pyridin-3-yl)ureido)-5-fluoro-1H-pyrrolo[2,3-b]pyridin-1-yl)cyclobutyl)(methyl)carbamate] and `CC(C)(C)OC(=O)N1CCCC(n2cc(NC(=O)Nc3ccc(C4CCC(F)(F)CC4)nc3)c3cc(F)cnc32)C1` (centres unmarked) [Compound 102, tert-butyl 3-(3-(3-(6-(4,4-difluorocyclohexyl)pyridin-3-yl)ureido)-5-fluoro-1H-pyrrolo[2,3-b]pyridin-1-yl)piperidine-1-carboxylate] fall in the same range of EC50: 5000 to 100000 nM for the first, 5000 to 100000 nM for the second.

`CC(C)(C)OC(=O)N1CCC(n2cc(NC(=O)Nc3ccc(C4CCC(F)(F)CC4)nc3)c3cc(F)cnc32)CC1` [Compound 103, tert-butyl 4-(3-(3-(6-(4,4-difluorocyclohexyl)pyridin-3-yl)ureido)-5-fluoro-1H-pyrrolo[2,3-b]pyridin-1-yl)piperidine-1-carboxylate] and `O=C(Nc1ccc(C2CCC(F)(F)CC2)nc1)Nc1cn(Cc2ccccc2)c2ncc(F)cc12` [Compound 104, 1-(1-benzyl-5-fluoro-1H-pyrrolo[2,3-b]pyridin-3-yl)-3-(6-(4,4-difluorocyclohexyl)pyridin-3-yl)urea] fall in the same range of EC50: 5000 to 100000 nM for the first, 5000 to 100000 nM for the second.

First: O=C(Nc1ccc(C2CCC(F)(F)CC2)nc1)Nc1c[nH]c2ncc(-c3cccc(CO)c3)cc12 [Compound 105, 1-(6-(4,4-difluorocyclohexyl)pyridin-3-yl)-3-(5-(3-(hydroxymethyl)phenyl)-1H-pyrrolo[2,3-b]pyridin-3-yl)urea]
Second: Cc1cnc2[nH]cc(NC(=O)Nc3ccc(C4CCC(F)(F)CC4)nc3)c2c1 [Compound 106, 1-(6-(4,4-difluorocyclohexyl)pyridin-3-yl)-3-(5-methyl-1H-pyrrolo[2,3-b]pyridin-3-yl)urea]
The EC50 of the first is higher: 5000 to 100000 nM for the first, 1000 to 5000 nM for the second.

`CC(C)n1cc(-c2cnc3[nH]cc(NC(=O)Nc4ccc(C5CCC(F)(F)CC5)nc4)c3c2)cn1` [Compound 107, 1-(6-(4,4-difluorocyclohexyl)pyridin-3-yl)-3-(5-(1-isopropyl-1H-pyrazol-4-yl)-1H-pyrrolo[2,3-b]pyridin-3-yl)urea] and `O=C(Nc1ccc(C2CCC(F)(F)CC2)nc1)Nc1c[nH]c2ncc(Cl)cc12` [Compound 108, 1-(5-chloro-1H-pyrrolo[2,3-b]pyridin-3-yl)-3-(6-(4,4-difluorocyclohexyl)pyridin-3-yl)urea] fall in the same range of EC50: 200 to 1000 nM for the first, 200 to 1000 nM for the second.

Compared with `O=C(Nc1ccc(C2CCCC2)nc1)Nc1c[nH]c2ncc(F)cc12` [Compound 109, 1-(6-cyclopentylpyridin-3-yl)-3-(5-fluoro-1H-pyrrolo[2,3-b]pyridin-3-yl)urea], `O=C(Nc1ccc(NC2CCC2)nc1)Nc1c[nH]c2ncc(F)cc12` [Compound 112, 1-(6-(cyclobutylamino)pyridin-3-yl)-3-(5-fluoro-1H-pyrrolo[2,3-b]pyridin-3-yl)urea] is higher in EC50: 200 to 1000 nM for the first, 1000 to 5000 nM for the second. The first is the more potent here.

`O=C(Nc1cnc(N2CCC(F)(F)CC2)c(Cl)c1)Nc1c[nH]c2ncc(F)cc12` [Compound 110, 1-(5-chloro-6-(4,4-difluoropiperidin-1-yl)pyridin-3-yl)-3-(5-fluoro-1H-pyrrolo[2,3-b]pyridin-3-yl)urea] and `O=C(Nc1cnc(C2CCC(F)(F)CC2)c(F)c1)Nc1c[nH]c2ncc(F)cc12` [Compound 113, 1-(6-(4,4-difluorocyclohexyl)-5-fluoropyridin-3-yl)-3-(5-fluoro-1H-pyrrolo[2,3-b]pyridin-3-yl)urea] fall in the same range of EC50: 40 to 200 nM for the first, 40 to 200 nM for the second.

In the case of `O=C(Nc1cnc(OC2CCC2)c(F)c1)Nc1c[nH]c2ncc(F)cc12` [Compound 111, 1-(6-cyclobutoxy-5-fluoropyridin-3-yl)-3-(5-fluoro-1H-pyrrolo[2,3-b]pyridin-3-yl)urea], the EC50 is reported as 200 to 1000 nM.

same assay, conditions: 2′3′cGAMP 15 μM, 24 h, numeric bounds

In the case of `O=C(Nc1ccc(C2CCC(O)CC2)nc1)Nc1c[nH]c2ncc(F)cc12` (centres unmarked) [Compound 114, 1-(5-fluoro-1H-pyrrolo[2,3-b]pyridin-3-yl)-3-(6-(4-hydroxycyclohexyl)pyridin-3-yl)urea], the EC50 is reported as > 100000 nM.
